Assay results published in a melting point compilation (Tetko et al.; mined from patent text by program, amines drawn as free bases though some values may be those of a salt).

melting point	SMILES
283 to 286 °C	O=C(O)C1Cc2c(ccc3c(=O)c4ccccc4oc23)O1 (configuration not stated)
228 to 229 °C	CC(O)Cc1cc2c3ccccc3[nH]c(=O)n2n1 (configuration not stated)
174 to 176 °C	COC(=O)c1ccc2c(c1)c(=O)cc(-c1ccccc1)n2C
172 to 173 °C	COC(=O)CN1CCN(CC(=O)OC)[C@@H](C(N)=O)[C@H]1C(N)=O
187 to 188 °C	O=C(CCC1CCC(=O)N1)Nc1ccncc1 (configuration not stated)
226 to 227 °C	COC(=O)[C@H](Cc1c(Br)n(Cc2ccccc2)c2cc(Br)c(OC)c(Br)c12)NC(C)=O
74 to 77 °C	CNC(=S)NS(=O)(=O)c1cc(CCNC(=O)/C=C/c2cccs2)ccc1OC
94 °C	CCCCCCS(=O)(=O)c1ccc(Oc2ccc(Br)cc2)nc1
> 250 °C	NC(C(=O)O)c1ccc(C(=O)O)c(O)c1CCCc1ccccc1 (configuration not stated)
190 to 193 °C	C=CCc1cc(C(=O)c2ccc(Cl)c(S(=O)(=O)N=CN(C)C)c2)c(Cl)c(Cl)c1O
134 to 137 °C	COC(=O)c1cc2ccoc2nc1C1=NC(C)(C(C)C)C(=O)N1 (configuration not stated)
94 to 99 °C	N#CC(c1ccccc1)(c1ccccc1)c1ccc([N+](=O)[O-])cn1
121 to 123 °C	Nc1ncccc1OCc1ccc(Cl)cc1
94 °C	CC(C)C(CC(O)C(CC1CCCCC1)NC(=O)C(Cc1c[nH]cn1)NC(=O)C(N)Cc1ccccc1)C(O)CN(Cc1ccccn1)C(=O)OCc1ccccc1 (mixture of isomers)
112 °C	CN1CCC(c2c(O)cc(O)c3c(=O)cc(Oc4ccccc4)oc23)C(O)C1 (configuration not stated)
127 to 129 °C	CCCc1c(OCCCCCCc2cccc(OCC(=O)O)c2CCC(=O)O)ccc2c1OCCC2=O
117 to 118 °C	COC(=O)NCc1ccc2ccn(C3CCN(CCc4ccc(F)cc4)CC3)c2c1
43 to 45 °C	CCOC(=O)c1scnc1Cl
204 to 206 °C	COc1cc(-c2snnc2C)cc2oc(=O)c(C)c(C)c12
253 °C	Cc1cc(-c2cc3nccnc3[nH]2)cn1C
75 to 76 °C	CC(NC(=O)Cc1cc(F)cc(F)c1)C(=O)NC1C(=O)N(CCc2ccccc2)Cc2ccccc21 (configuration not stated)
110 to 112 °C	C=CCN1C(=O)c2ccccc2Oc2nc(Cl)ccc21
200 °C	O=C(Nc1ccccc1)N1Cc2sccc2C(O)C1 (configuration not stated)

melting point	SMILES
127 to 130 °C	CC(C)c1nc(COC(N)=O)n(Cc2ccccn2)c1Sc1cc(Cl)cc(Cl)c1
198 to 204 °C	Cc1cccc(NC(=O)c2cccc(C(F)(F)F)c2)c1C(=O)O
47 to 52 °C	CC(C)(C)OC(=O)CON=C(c1ccccc1)c1cc2ccncc2[nH]1
118 °C	CC(C)(C)NCC(O)COc1ccc(-c2noc3sccc23)cc1 (configuration not stated)
211 to 212 °C	CC(C)c1c(C(=O)O)cnn1-c1ccc(Cl)cc1
135 to 138 °C	Cc1cc(F)ccc1-c1cc(N2CCS(=O)(=O)CC2)ncc1N(C)C(=O)C(C)(C)c1cc(C(F)(F)F)cc(C(F)(F)F)c1
96 to 97 °C	CC(C)(NC(=O)CCNC(=O)OCc1ccccc1)c1ccccc1
105 to 106 °C	C/C(=C\CC1OC(=O)NC1=O)c1cccc(OCc2nc(-c3ccc(OC(F)(F)F)cc3)oc2C)c1 (configuration not stated)
173 to 175 °C	CC(=O)OCC(O)COc1ccc2nc(S(N)(=O)=O)sc2c1 (configuration not stated)
168 to 170 °C	COC(=O)c1c(C(C)C)nc2c(c1-c1ccc(F)cc1)CCCN2
122 to 124 °C	COc1cc(Nc2c(C#N)cnc3cc(NCCCC4CCN(C)CC4)c(OC)cc23)c(Cl)cc1Cl
124 to 126 °C	CC(C)=C(C(=O)O)c1ccc(F)cc1
91 to 94 °C	CC(F)(C(=O)O)c1ccc(OS(=O)(=O)C(F)(F)F)cc1 (configuration not stated)
217 to 222 °C	CC(C)Oc1c(F)c(F)cc2c(=O)c(C(=O)O)cn(-c3cc(N)c(F)cc3F)c12
164 to 170 °C	COc1ccc(N2CCOCC2)c2sc(NC(=O)N3CC4CCC3CO4)nc12 (configuration not stated)
154 to 156 °C	CCNC(=S)NCc1cccc2c1C(=O)N(C1CCC(=O)NC1=O)C2=O (configuration not stated)
108 to 110 °C	CCOC(=O)c1cnn2c1NCC=C2c1cccc(C(F)(F)F)c1
146 to 148 °C	CONC(=O)Nc1ccc(-c2sc3c(c2CN(C)C(C)c2ccccn2)c(=O)n(-c2ccccc2)c(=O)n3Cc2c(F)cccc2F)cc1 (configuration not stated)
146 to 149 °C	COc1cc(OC)nc(NC(=O)NS(=O)(=O)c2nccn2-c2ccccn2)n1
248 °C	O=C(Cc1ccccc1O)N1C[C@@H]2SCCC(c3ccccc3)(c3ccccc3)[C@@H]2C1 (racemic)
38 to 42 °C	Cc1ccc(Cc2cnc(Cl)nc2OC(C)C)cn1
147 to 149 °C	CCOC(=O)COc1ccc(C(=O)c2ccn[nH]2)c(Cl)c1Cl
235 to 238 °C	O=c1[nH]c2cccnc2n1-c1ccccn1

melting point	SMILES
233 to 235 °C	O=c1cc2c(nn1-c1ccc(Cl)cc1)-c1cc(F)ccc1S(=O)CC2 (configuration not stated)
121 °C	Cc1cc(OCc2ncc([N+](=O)[O-])n2C)ccc1S(C)=O (configuration not stated)
200 to 204 °C	COc1ccc2[nH]c(C(=O)c3ccc(Cl)cc3)c(CC(=O)O)c2c1
163 to 164 °C	Fc1ccc(NC(=S)NN2CC=CCC2)cc1
192 to 194 °C	CCCCc1ccc2scc(NC(=O)C(=O)OC)c(=O)c2c1
109 to 111 °C	COc1ccc(-c2c(C(=O)O)n(Cc3ccc4c(c3)OCO4)c3ccccc23)cc1
228 to 230 °C	CC(Cn1ncnn1)n1nnc2cc3c(=O)n(C)nnc3cc2c1=O (configuration not stated)
> 250 °C	Cc1cc(C2=c3ccc(=C4C(=O)c5ccccc5C4=O)cc3OC2=O)cc(C)c1N
83 to 85 °C	COCCOc1c(S(C)(=O)=O)ccc(Cl)c1C
42 to 46 °C	COCN(c1c(C)ccc2ccccc12)C1COC(=O)C1 (configuration not stated)
110 to 112 °C	CCOC(=O)c1ccc(NCC(C)Oc2cccc3ccccc23)cc1 (configuration not stated)
172 to 173 °C	O=C(NCCO)c1ccnc(-c2cccc3cc(Cc4cc(F)cc(Cl)c4)sc23)c1
> 260 °C	O=C(Nc1ccc2[nH]c(=O)[nH]c2c1)C(=O)N1CCC(Cc2ccc(F)cc2)CC1
114 to 116 °C	COC(=O)c1cccc(C)c1S(=O)(=O)Cl
170 to 171 °C	CN(C)c1cccc2c1c(=O)n(C)c1c(-c3noc(C4CC4)n3)ncn21
191 to 192 °C	COc1ccccc1-c1nc(C)c(C(N)=O)s1
160 to 162 °C	NC(=O)CNc1c(F)cc([N+](=O)[O-])cc1F
51 to 53 °C	CCCS(=S)c1cccc(OS(C)(=O)=O)n1 (configuration not stated)
130 °C	CCOC(C#CCN1CCC(NC(=O)c2ccccc2)CC1)OCC
171 to 172 °C	COC(=O)c1[nH]c2ccccc2c1Oc1ccc(Cl)cc1[N+](=O)[O-]
131 °C	CCc1ccc(CCc2ccc(-c3ccc(OC(F)F)cc3)cc2)cc1
228 °C	COc1cc(C(=O)c2nc(NC(=O)C(F)(F)F)c3ccccn23)ccc1[N+](=O)[O-]
213 to 215 °C	CCOC(=O)c1cc(=O)cc(-c2ccccc2O)o1

melting point	SMILES
119 to 121 °C	COc1ccc(N2CCN(c3c(C)c(C)c4c(c3C)C(C3CCCCC3)C(C)(C)O4)CC2)cc1 (configuration not stated)
143 to 144 °C	CC(=O)c1cc2c(cc1NC(=O)c1cccc3ccccc13)OCO2
128 to 131 °C	COC(=O)CCCC(=O)Nc1cccc(Br)n1
163 to 165 °C	O=C(Nc1ccc(Cl)cc1)NS(=O)(=O)c1ccc2c(c1)CCCC2
138 to 141 °C	C[C@]1(F)C(=O)O[C@H](COC(=O)c2ccc(Cl)cc2)[C@H]1OC(=O)c1ccc(Cl)cc1
> 250 °C	O=C(Nc1ccc(-c2c[nH]c(=O)cn2)cc1)c1cccc([N+](=O)[O-])c1
230 to 234 °C	Cc1cc(C(O)C[N+](=O)[O-])cc(C)c1Oc1ccc([N+](=O)[O-])c(Nc2ccc(C#N)cc2)n1 (configuration not stated)
130 to 133 °C	CC12CC(=NO)C(C)(C)C1C(O)C2 (configuration not stated)
281 to 297 °C	Cc1cc(C)c(-c2cc3cnc(N)nc3nc2NC(=O)NC(C)(C)C)c(C)c1
127 °C	COc1cc(OC)nc(Oc2cccc(Oc3nc(OC)cc(OC)n3)c2CBr)n1
> 300 °C	N#Cc1ccc2[nH]c(C(N)=O)cc2c1
101 to 104 °C	CC(C)(C)c1cc(CC(C)(C)[N+](=O)[O-])cc(C(C)(C)C)c1O
179 to 181 °C	Cc1ccc(Cc2ccc3nc(N)sc3c2)s1
209 to 212 °C	COc1ccc2cc3c(=O)n(C)cc(C(=O)NCCN(C)C)c3nc2c1Cl
242 to 244 °C	O=C1CCC(c2ccc(C(=O)Nc3ccccc3F)cc2)=NN1
272 to 274 °C	CCC1(C)CC2(NC(=O)N(Cc3ccc(CN4C(=O)NC5(CC(C)(CC)NC(C)(CC)C5C)C4=O)cc3)C2=O)C(C)C(C)(CC)N1 (configuration not stated)
149 °C	COCCC(=O)OC[C@@H]1CC(c2ccc(-c3ccc(N4C[C@H](Cn5ccnn5)OC4=O)cc3F)cn2)=NO1
171 to 172 °C	CC1c2ccccc2Nc2nccn21 (configuration not stated)
155 to 156 °C	O=[N+]([O-])c1ccc(SCc2c[nH]cn2)nc1
139 to 140 °C	O=C(NCCOc1ccc(CC(Oc2ccc(F)cc2)C(=O)O)cc1)c1ccc(-c2ccccn2)cc1 (configuration not stated)
178 to 180 °C	CCOC(=O)c1cn(C2CC2)c2c(OC)c(F)c(F)cc2c1=O
90 to 93 °C	O=C(Nc1ccccc1)c1cccc(-c2ccc(OCC(O)CCc3cccnc3)cc2)c1 (configuration not stated)
162 °C	BrCc1ccc2nc(-c3ccccc3)oc2c1

SMILES	melting point
COc1nc(C)c(CCN2CC=C(c3c[nH]c4ccccc34)CC2)c(=O)n1C	209 to 211 °C
CN(C)CCc1c[nH]c2ccc(CCC(=O)NCc3ccc(NS(C)(=O)=O)cc3)cc12	78 to 82 °C
CS(=O)(=O)Nc1cnc([N+](=O)[O-])cn1	204 to 207 °C
CCCCC1(C2CCCC2)Cc2cc(OCCCC(=O)O)c(Cl)c(Cl)c2C1=O (configuration not stated)	139 to 140 °C
O=C(OC1CNC(=N[N+](=O)[O-])NC1)C1(C2CCCCC2)CCCCC1 (configuration not stated)	196 to 197 °C
